Results reported in PubChem BioAssay (NCI).
Values joined by “and” are separate entries in the source; they are usually repeats but may differ in a detail not shown here. Equal values may be shown once.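 Growth conditions: 96-well plates. Treatment: test compound, 48 hours, 5 concentrations. Analysis: linear interpolation between bracketing concentrations; unreached endpoints set to highest concentration. GI50 is the concentration that inhibits growth by half. At the TGI there is no net growth.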

Tested on: ACHN renal
Assay: NCI-60 cell line screen, 48 h

For CC1=CC(=O)C=CC1=O, the GI50 was 15.9 µM and 2.94 µM.

In the case of CC1=CC(=O)C=CC1=O, the TGI is reported as 29.4 µM and 10.1 µM.

In order of falling GI50:
1. Cc1cc2ncnn2cc1Nc1ncc2c(n1)n(C1CCOCC1)c(=O)n2C  9.97 µM
2. Cc1cc(C)c(NC(=O)c2sc3nc4c(cc3c2N)C(=O)CCC4)c(C)c1  6.11 µM
3. Cc1ccc(NC(=O)c2cccc(C(C)(C)C#N)c2)cc1Nc1ccc2ncn(C)c(=O)c2c1  1.73 µM
4. CCCC(CCC)NCC(O)c1cc(-c2ccc(C(F)(F)F)cc2)nc(C(F)(F)F)c1 (stereo not given)  1.63 µM

First: CCCC(CCC)NCC(O)c1cc(-c2ccc(C(F)(F)F)cc2)nc(C(F)(F)F)c1 (stereo not given)
Second: CN(C)CCNc1ccc(CO)c2oc3ccc(O)cc3c(=O)c12
The TGI of the first is 14-fold lower: 3.16 µM for the first, 44 µM for the second.

Cc1cc(C)c(NC(=O)c2sc3nc4c(cc3c2N)C(=O)CCC4)c(C)c1 and Cc1ccc(NC(=O)c2cccc(C(C)(C)C#N)c2)cc1Nc1ccc2ncn(C)c(=O)c2c1 cannot be ordered by TGI: greater than 100 µM for the first, greater than 100 µM for the second.

Cc1cc2ncnn2cc1Nc1ncc2c(n1)n(C1CCOCC1)c(=O)n2C and COc1cc(Cc2nccc3cc(OC)c(OC)cc23)c(C(C)=O)cc1OC cannot be ordered by TGI: greater than 100 µM for the first, 429 µM for the second.

Tested on: A498 renal
Assay: NCI-60 cell line screen, 48 h

First: CC1(C)C(=O)/C(=C\c2cccnc2)C[C@]2(C)[C@H]3CC[C@@H]4[C@H]5[C@H](C(=O)/C=C/c6cccnc6)CC[C@]5(C(=O)O)CC[C@@]4(C)[C@]3(C)CC[C@@H]12
Second: NC(=O)c1cc(Cl)ccc1NC(=O)/C=C/c1ccccc1
The GI50 of the first is 2.7-fold lower: 1.92 µM for the first, 5.09 µM for the second.

Compared with COc1cc2ncnc(-n3ncc4cc(NC(=O)Nc5ccccc5)ccc43)c2cc1OC, COc1cc(Cc2nccc3cc(OC)c(OC)cc23)c(C(C)=O)cc1OC is 970-fold higher in GI50: 0.21 µM for the first, 204 µM for the second.

Going from COc1ccc(C(=O)c2cc(OC)c(OC)c(OC)c2)cc1/C=C/C(=O)c1ccc(F)cc1 to COc1ccc(C(=O)c2cc(C)c(OC)c(C)c2)cc1OC(=O)CCl, the GI50 falls from 14 µM to 1.45 µM (9.7-fold).

Compared with COc1ccc(-c2[nH]c3ccc(OC)cc3c2/C=C(\C#N)S(=O)(=O)c2ccccc2)cc1, c1ccc(Sc2ccc(Cc3nc4cc5ccccc5cc4[nH]3)cc2)cc1 is 22-fold higher in GI50: 0.966 µM for the first, 21.5 µM for the second.

First: O=c1cc(NCC(O)CN2CCCC2)n(Cc2ccccc2)c(=O)n1Cc1ccccc1 (stereo not given)
Second: O=C1/C(=C(/c2ccccc2)N2CCOCC2)Cc2ccccc21
The GI50 of the first is higher: greater than 100 µM for the first, 5.19 µM for the second.

Compared with CCc1nc2cc(F)c(/C=C/C(=O)NO)cc2c(=O)n1CCc1ccccc1, Cc1cc(C(=O)Nc2ccc3cc(CN4CCOCC4)ccc3n2)c(C)n1-c1ccccc1 is 21-fold higher in GI50: 0.149 µM for the first, 3.09 µM for the second.

Going from C/C(=N\Nc1ccc(Cl)cn1)c1ccc2ccccc2n1 to Cc1ccc(NC(=O)c2cccc(C(C)(C)C#N)c2)cc1Nc1ccc2ncn(C)c(=O)c2c1, the GI50 falls from 33.4 µM to 0.742 µM (45-fold).

Compared with C=C1C(=O)O[C@H]2[C@H]1CC/C(COC(=O)NCCCCNC(=O)OC/C1=C/CC[C@@]3(C)O[C@H]3[C@H]3OC(=O)C(=C)[C@@H]3CC1)=C\CC[C@@]1(C)O[C@@H]21, Cc1cc(C)c(NC(=O)c2sc3nc4c(cc3c2N)C(=O)CCC4)c(C)c1 is 1.9-fold lower in GI50: 6.36 µM for the first, 3.4 µM for the second.

Compared with NS(=O)(=O)c1ccc(-c2ccc3c(NC(=O)C4CC4)n[nH]c3c2)cc1, CCCC(CCC)NCC(O)c1cc(-c2ccc(C(F)(F)F)cc2)nc(C(F)(F)F)c1 (stereo not given) is lower in GI50: greater than 25 µM for the first, 1.35 µM for the second.

Compared with C=CCCCCC/C=C\[C@@H](O)C#CC#C/C=C/CO, Cc1cc2ncnn2cc1Nc1ncc2c(n1)n(C1CCOCC1)c(=O)n2C is lower in GI50: greater than 100 µM for the first, 0.319 µM for the second.

Compared with CC1(C)C(=O)/C(=C\c2cccnc2)C[C@]2(C)[C@H]3CC[C@@H]4[C@H]5[C@H](C(=O)/C=C/c6cccnc6)CC[C@]5(C(=O)O)CC[C@@]4(C)[C@]3(C)CC[C@@H]12, NC(=O)c1cc(Cl)ccc1NC(=O)/C=C/c1ccccc1 is higher in TGI: 3.44 µM for the first, greater than 53.7 µM for the second.

First: COc1cc2ncnc(-n3ncc4cc(NC(=O)Nc5ccccc5)ccc43)c2cc1OC
Second: Cc1ccc(NC(=O)c2cccc(C(C)(C)C#N)c2)cc1Nc1ccc2ncn(C)c(=O)c2c1
The TGI of the first is 4.6-fold lower: 0.896 µM for the first, 4.08 µM for the second.

First: COc1ccc(C(=O)c2cc(OC)c(OC)c(OC)c2)cc1/C=C/C(=O)c1ccc(F)cc1
Second: COc1ccc(C(=O)c2cc(C)c(OC)c(C)c2)cc1OC(=O)CCl
The TGI of the first is 3.1-fold higher: 29.9 µM for the first, 9.51 µM for the second.

Compared with OCC1OC(n2cnc3c2NC=NC[C@H]3O)C(Cl)C1O (stereo not given in full), Cc1cc2ncnn2cc1Nc1ncc2c(n1)n(C1CCOCC1)c(=O)n2C is lower in TGI: greater than 100 µM for the first, 2.22 µM for the second.

Compared with COc1ccc(C2=C(Cl)c3cc(OC)c(OC)cc3C2Cl)cc1 (stereo not given), COc1ccc(C[N+](C)(C)N)cc1OC is higher in TGI: 28.9 µM for the first, greater than 100 µM for the second.

First: COc1ccc(-c2[nH]c3ccc(OC)cc3c2/C=C(\C#N)S(=O)(=O)c2ccccc2)cc1
Second: c1ccc(Sc2ccc(Cc3nc4cc5ccccc5cc4[nH]3)cc2)cc1
The TGI of the first is 7.1-fold lower: 8.18 µM for the first, 57.8 µM for the second.

Compared with O=c1cc(NCC(O)CN2CCCC2)n(Cc2ccccc2)c(=O)n1Cc1ccccc1 (stereo not given), O=C1/C(=C(/c2ccccc2)N2CCOCC2)Cc2ccccc21 is lower in TGI: greater than 100 µM for the first, 11.4 µM for the second.

First: CCc1nc2cc(F)c(/C=C/C(=O)NO)cc2c(=O)n1CCc1ccccc1
Second: Cc1cc(C(=O)Nc2ccc3cc(CN4CCOCC4)ccc3n2)c(C)n1-c1ccccc1
The TGI of the first is 87-fold lower: 0.736 µM for the first, 64.2 µM for the second.

C/C(=N\Nc1ccc(Cl)cn1)c1ccc2ccccc2n1 and NS(=O)(=O)c1ccc(-c2ccc3c(NC(=O)C4CC4)n[nH]c3c2)cc1 cannot be ordered by TGI: greater than 100 µM for the first, greater than 25 µM for the second.

CC1=C(/C=C/Cl)CC(Cl)C(C)(Cl)C1 (stereo not given) and Cc1cc(C)c(NC(=O)c2sc3nc4c(cc3c2N)C(=O)CCC4)c(C)c1 cannot be ordered by TGI: greater than 100 µM for the first, greater than 51.5 µM for the second.

C=C1C(=O)O[C@H]2[C@H]1CC/C(COC(=O)NCCCCNC(=O)OC/C1=C/CC[C@@]3(C)O[C@H]3[C@H]3OC(=O)C(=C)[C@@H]3CC1)=C\CC[C@@]1(C)O[C@@H]21 and CN(C)CCNc1ccc(CO)c2oc3ccc(O)cc3c(=O)c12 are within 1.5-fold of each other in TGI: 18.9 µM for the first, 28.3 µM for the second.

C=CCCCCC/C=C\[C@@H](O)C#CC#C/C=C/CO and CCCCCCCCCCCCCCCC(=O)OCC(C[As](=O)(O)O)OC(=O)CCCCCCCCCCCCCCC (stereo not given) cannot be ordered by TGI: greater than 100 µM for the first, greater than 100 µM for the second.

For CCCC(CCC)NCC(O)c1cc(-c2ccc(C(F)(F)F)cc2)nc(C(F)(F)F)c1 (stereo not given), the TGI was 2.67 µM.

With CC1=CC(=O)C=CC1=O the GI50 was 30.6 µM and 51.5 µM.

For CC1=CC(=O)C=CC1=O, the TGI was 96 µM and 144 µM.
In the case of COc1cc(Cc2nccc3cc(OC)c(OC)cc23)c(C(C)=O)cc1OC, the TGI is reported as > 300 µM and 507 µM.
